Results: patent US20190054054A1, “Methods reducing or preventing oxidation of high density lipoprotein (HDL)” (Amarin Pharmaceuticals Ireland Limited, priority 2017, published 2019)

What was measured:
HUVECs = assay: NO and ONOO^− release from HUVECs treated concomitantly with agents and oxLDL (Example 11, Objective 2); assay type: cell-based, human; settings: oxLDL 11 mg/dL treated 30 min with agents, each at 10 μM; cells exposed 60 min
Experimental: The omega-3 fatty acid, cis-5,8,11,14,17-eicosapentaenoic acid (EPA) and docosahexaenoic acid (DHA) were purchased from Sigma-Aldrich (Saint Louis, Mo.) and solubilized in redistilled ethanol to 11 mM under nitrogen atmosphere. EPA and DHA stock solutions were stored at −20° C. until use.
Human umbilical vein endothelial cells (HUVECs) were obtained from healthy, female donors and isolated into primary, proliferating cell cultures (Clonetics, San Diego, Calif.). The cells were incubated in 95% air/5% CO2 at 37° C. and passaged by an enzymatic (trypsin) procedure. The confluent cells (4 to 5×10^5 cells/35 mm dish) were plated with minimum essential medium containing 3 mM L-arginine and 0.1 mM BH4 [(6R)-5,6,7,8-tetrahydrobiopterin]. Before experimental use, the cells (from second or third passage) were rinsed twice with Tyrode-HEPES buffer with 1.8 mM CaCl2.
Venous blood was collected from healthy volunteers into vacutainer tubes containing sodium EDTA. Plasma was separated by centrifugation at 3000 g for 25 min at 4° C. and adjusted to a density of 1.020 g/mL with KBr. Triglyceride-rich lipoproteins (TGRL) and LDL fractions were isolated by sequential centrifugation at 70,000 rpm at 4° C. in a Beckman LE-80 ultracentrifuge using a Beckman 50.4Ti rotor (Beckman Coulter, Inc., Fullerton, Calif.). The TGRL fraction (with a relative density of <1.020) was aspirated from the top of the centrifugate and discarded, leaving an LDL-enriched infranate (with a relative density of 1.020-1.063). The LDL subfraction was retained for additional experimentation. Plasma and lipoprotein fractions were maintained at 4° C. and protected from excessive exposure to light. Prior to oxidation experiments, EDTA was removed from the lipoprotein fraction using PD-10 desalting columns (GE Healthcare, Piscataway N.J.). After equilibration of the column with phosphate buffered saline (PBS), 2.5 mL of the lipoprotein fraction was loaded on the column and the flow-through discarded. The lipoprotein was then eluted with 3 mL of PBS. The LDL fractions were further diluted with PBS to obtain a 100 μg/mL apoB100 concentration.
LDL underwent oxidation following the addition of 10 μM CuSO4. […] Sample TBARS concentrations were determined spectrophotometrically by measuring sample absorbances against a standard curve derived from the hydrolysis of 1,1,3,3-tetramethoxypropane. […]
The amperometric method (with a response time of 0.1 ms) provides a quantitative signal (current) that is directly proportional to changes (from basal levels) in NO or ONOO^− concentration. […] Basal NO or ONOO^− levels were measured by differential pulse voltammetry in separate experiments. […]

[1] = Glucose- and peroxidation-induced cholesterol domain formation, small angle x-ray diffraction (Example 4); settings: 1:30 mole ratio; for effect on membrane structure as compared to control: at the start of the experiment (0 hours)
Experimental: Samples were shell-dried under nitrogen gas and placed under vacuum for 1 h to remove residual solvent. […] Lipid suspensions were then vortexed for 3 min at ambient temperature to form MLVs. […] Membrane lipid vesicles were oriented for x-ray diffraction analysis as described by others (e.g., Herbette et al., Biophys. […] Briefly, a 100 μL aliquot (containing 250 μg MLV) was aspirated from each sample and transferred to a Lucite® sedimentation cell fitted with an aluminum foil substrate upon which a given sample could be collected by centrifugation. Samples were then loaded into a Sorvall AH-629 swinging bucket rotor (DuPont Corp., Wilmington, Del.) and centrifuged at 35,000 g, 5° C., for 90 min. After centrifugal orientation, sample supernatants were aspirated and aluminum foil substrates, each supporting a single membrane pellet, were removed from the sedimentation cells. Sample pellets were dried for 5-10 min at ambient conditions, mounted onto curved glass supports, and placed in hermetically-sealed, brass or glass containers (for immediate analysis or temporary storage, respectively). All x-ray diffraction experiments were conducted at 20° C., 74% relative humidity. The latter was established by exposing membrane samples to saturated solutions of L-(+) tartaric acid (K2C4H4O6.½H2O). Samples were incubated at these conditions for at least 1 hour prior to experimental analysis. Oriented membrane samples were aligned at grazing incidence with respect to a collimated, mono-chromatic CuKα x-ray beam (Kα1 and Kα2 unresolved; λ=1.54 Å) produced by a Rigaku Rotaflex RU-200, high-brilliance microfocus generator (Rigaku-MSC, The Woodlands, Tex.) as previously described (Mason et al., Biophys. J., vol. 55(4), pages 769-778 (1989)). Diffraction data were collected on a one-dimensional, position-sensitive electron detector (Hecus X-ray Systems, Graz, Austria) at a sample-to-detector distance of 150 mm. […] The d-space for any given membrane multibilayer is a measurement of the unit cell periodicity of the membrane lipid bilayer (e.g., the distance from the center of one lipid bilayer to the next including surface hydration), and is calculated from Bragg's Law, h λ=2 d sin θ, where h is the diffraction order, λ is the wavelength of the x-ray radiation (1.54 Å), d is the membrane lipid bilayer unit cell periodicity, and θ is the Bragg angle equal to one-half the angle between the incident beam and scattered beam. […] Under the specific temperature and relative humidity conditions established for these experiments, the second-order, 17 Å cholesterol domain peak was well-delineated from other, neighboring cholesterol and phospholipid diffraction peaks and was thus used to quantitate relative cholesterol domain peak intensity. […]

SMILES	NO (HUVECs)	ONOO^− (HUVECs)	inhibition of relative cholesterol domain peak intensity ([1]; 96-hour time point, compared to vehicle or vitamin E)	effect on membrane structure as compared to control ([1]; glucose 200 mg/dL)	effect on cholesterol domain formation as compared to control ([1]; any experimental time point, glucose 200 mg/dL)
CC/C=C\C/C=C\C/C=C\C/C=C\C/C=C\C/C=C\CCC(=O)O [DHA, docosahexaenoic acid]	362 ± 39	240 ± 27			
CC/C=C\C/C=C\C/C=C\C/C=C\C/C=C\CCCC(=O)O [EPA, cis-5,8,11,14,17-eicosapentaenoic acid]	385 ± 43	232 ± 24	more than 99%	no appreciable effect on membrane structure	
Cc1c(C)c2c(c(C)c1O)CC[C@@](C)(CCC[C@H](C)CCC[C@H](C)CCCC(C)C)O2 [vitamin E, α-tocopherol]				no appreciable effect on membrane structure	no significant effect on cholesterol domain formation
